Measured values as given in patent US5422344A, “Method of treating retroviral infections in mammals” (The United States of America as represented by the …, priority 1990, dated 1995).
Read-outs that look alike come from different tables or passages of the source.

Legend:
[1] = system: HIV; assay: Virus production in chronically HIV-infected cells; type: cell-based; conditions: non-cytotoxic doses; preliminary evidence
[2] = system: experimental tumors and human colon cancer; conditions: cited from earlier work
[3] = Cell number, viability (trypan blue dye exclusion) and growth of H9 cells; type: cell-based; conditions: human, h9 cells
[4] = system: H9 cells; assay: as above; type: cell-based; conditions: for Cell No.: 7 days postinfection
[5] = system: HIV-IIIB (HIV-1) replication in H9 cells; assay: HIV replication (RT activity) in acute infection of H9 cells; type: cell-based; conditions: for RT activity: 7 days postinfection; for RT/Cell: 1 h treatment
Method: HIV-Acute Infection of H9 Cells by HIV and Drug Treatment: One ml of culture supernatant of H9/HIV-IIIB cells (10^6 /ml) was used after centrifugation (200xg, 20 min) and filtration (0.45 μm) for infecting 10^5 H9 cells in the presence or absence of different levels of CPT, m-AMSA or VP-16. Control cells received equivalent volumes of DMSO. The cells were incubated for 1 h at 37° C., pelleted, washed and resuspended in fresh media. […] (1981) J. Virol. 38: 239-48.
CPT Inhibition of HIV Replication Following Acute Infection of H9 Cells with HIV-IIIB. In order to determine appropriate concentrations of CPT which would permit cell viability and growth while inhibiting viral infection or replication, H9 cells were infected with HIV-IIIB as described above in the absence or presence of different CPT doses. The cells were incubated for 1 h at 37° C., pelleted, washed and resuspended in fresh media. Reverse transcriptase (RT) activity in the culture media was measured seven days after infection.
Since CPT is an anticancer drug and a known topo I inhibitor, its effects on HIV replication were compared to those of other anticancer drugs which are known to inhibit the related topoisomerase II enzyme.

[6] = system: Moloney MuLV; assay: Moloney MuLV replication in vitro; type: cell-based, Moloney murine leukemia virus
[7] = system: equine infectious anemia virus (EIAV); assay: EIAV replication / infection in cells; type: cell-based
[8] = system: HIV-IIIB (HIV-1) replication in H9 cells; assay: HIV replication in cocultivation of H9/HIV-IIIB chronically infected cells with H9 cells; type: cell-based
Method: 10 H9/HIV-IIIB (A,D), 100 H9/HIV-IIIB (B,E) or 1000 H9/HIV-IIIB cells (C,F) were cocultivated with 10^5 H9 cells in the presence or absence of 0.01 μM (A,B), 0.2 μM (C) , 0.005 μM (D,E), or 0,005-0.01 μM (F) of CPT for 1 h (A,B,C) or 18h (D,E,F). RT activity was measured in the culture media 7,8, and 9 days post-infection and treatment.
Cocultivation of H9/HIV-IIIB Cells with Uninfected H9 Cells and CPT Treatment: Ten, 100 or 1,000 H9/HIV-IIIB cells were cocultivated with 10^5 H9 cells in the presence or absence of different CPT doses. Cells were incubated for 1 h at 37° C., pelleted, washed and resuspended in fresh media. RT activity in the culture media was measured seven, eight, and nine days after infections, as described above.
For a longer treatment period, H9/HIV-IIIB cells were cocultivated with H9 cells in the presence or absence of 0.005-0.01 μM CPT for 18 h at 37° C.
CPT Inhibition of HIV Replication in Cocultivation of H9/HIV-IIIB Chronically Infected Cells with H9 Uninfected Cells. Since it is likely that HIV infection in vivo involves cell to cell contact and virus production by previously infected cells, the ability of CPT to block the spread of HIV in uninfected H9 cells cocultivated with cells chronically infected with HIV was examined. The results shown in FIG. 2A indicate that 100% inhibition of HIV replication was observed when 10 infected cells were mixed with uninfected cells in the presence of 0.01 μM CPT for 1 h. […] However, increasing the CPT dose to 0.2 μM reduced HIV replication to 15% of control values when 1000 infected cells were mixed with 10^5 uninfected H9 cells (FIG. 2C).

## CC[C@@]1(O)C(=O)OCc2c1cc1n(c2=O)Cc2cc3ccccc3nc2-1 [CPT, Camptothecin]
[1]
  virus production in chronically HIV-infected cells: virus production is suppressed
[2]
  antitumor activity: strong antitumor activity
[3]; 0.005 μM CPT, 7 days postinfection
  viability at 168 h, 0.005 µM: 100%
[3]; 0.01 μM CPT, 7 days postinfection
  viability at 168 h, 0.01 µM: 100%
[3]; 0.02 μM CPT, 7 days postinfection
  viability at 168 h, 0.02 µM: 100%
[3]; 0.05 μM CPT, 7 days postinfection
  viability at 168 h, 0.05 µM: 100%
[3]; 0.1 μM CPT, 7 days postinfection
  viability at 168 h, 0.1 µM: 100%
[3]; 0.2 μM CPT, 7 days postinfection
  viability at 168 h, 0.2 µM: 100%
[3]; data not shown, read-out: anti-HIV doses vs cytotoxic doses (times lower)
  selectivity ratio: 400
[4]; 0.005 μM CPT
  Cell No.: 2 × 10^6
[4]; 0.01 μM CPT
  Cell No.: 2.2 × 10^6
[4]; 0.02 μM CPT
  Cell No.: 4 × 10^5
[4]; 0.05 μM CPT
  Cell No.: 1 × 10^5
[4]; 0.1 μM CPT
  Cell No.: 1 × 10^5
[4]; 0.2 μM CPT
  Cell No.: 1 × 10^5
[4]; 0.005-0.02 μM CPT
  effect on cell viability or cell growth: no effect on cell viability or cell growth was detected
[4]; 0.05-0.2 μM CPT
  effect on cell growth: cell growth was arrested
[4]; 0.05-0.2 μM CPT, trypan blue dye exclusion
  effect on cell viability: no effect on cell viability was detected
[5]; 0.005 μM CPT, 1 h
  RT activity: 429 ± 116 cpm/cell 10^5
[5]; 0.005 μM CPT, day 7 after infection
  RT/Cell: 5400 cpm/10^5 Cell
[5]; 0.005 μM CPT, day 8 after infection
  RT/Cell: 34268 cpm/10^5 Cell
[5]; 0.005 μM CPT, day 9 after infection
  RT/Cell: 102450 cpm/10^5 Cell
[5]; 0.01 μM CPT, 1 h
  RT activity: 528 ± 40 cpm/cell 10^5
[5]; 0.01 μM CPT, day 7 after infection
  RT/Cell: 5085 cpm/10^5 Cell
[5]; 0.01 μM CPT, day 8 after infection
  RT/Cell: 33968 cpm/10^5 Cell
[5]; 0.01 μM CPT, day 9 after infection
  RT/Cell: 112870 cpm/10^5 Cell
[5]; 0.02 μM CPT, 1 h
  RT activity: 400 ± 103 cpm/cell 10^5
[5]; 0.02 μM CPT, day 7 after infection
  RT/Cell: 29.7 cpm/10^5 Cell
[5]; 0.02 μM CPT, day 8 after infection
  RT/Cell: 325 cpm/10^5 Cell
[5]; 0.02 μM CPT, day 9 after infection
  RT/Cell: 65761 cpm/10^5 Cell
[5]; 0.05 μM CPT, 8 and 9 days after infection
  inhibition of HIV production: essentially complete inhibition of HIV production
[5]; 0.05 μM CPT, 1 h
  RT activity: 235 ± 62 cpm/cell 10^5
[5]; 0.05 μM CPT, day 7 after infection
  RT/Cell: 0.03 cpm/10^5 Cell
[5]; 0.05 μM CPT, day 8 after infection
  RT/Cell: 1.5 cpm/10^5 Cell
[5]; 0.05 μM CPT, day 9 after infection
  RT/Cell: 9.4 cpm/10^5 Cell
[5]; 0.1 μM CPT, 1 h
  RT activity: 106 ± 30 cpm/cell 10^5
[5]; 0.2 μM CPT, 1 h
  RT activity: 139 ± 96 cpm/cell 10^5
[5]; 0.005-0.02 μM CPT, 1 h, 7 days after infection
  inhibitory effect on HIV replication: 89-93%
[5]; 1 hour exposure
  effect of 1 hour exposure during viral infection on HIV replication: sufficient to prevent HIV replication
[5]; Human immunodeficiency virus 1, IIIB, H9, read-out: RT % Inhibition, 0.005 μM CPT, 1 h treatment, day 7 after infection
  inhibition at 0.005 µM: 84%
[5]; Human immunodeficiency virus 1, IIIB, H9, read-out: RT % Inhibition, 0.005 μM CPT, 1 h treatment, day 8 after infection
  inhibition at 0.005 µM: 74%
[5]; Human immunodeficiency virus 1, IIIB, H9, read-out: RT % Inhibition, 0.005 μM CPT, 1 h treatment, day 9 after infection
  inhibition at 0.005 µM: 24%
[5]; Human immunodeficiency virus 1, IIIB, H9, read-out: RT % Inhibition, 0.01 μM CPT, 1 h treatment, day 7 after infection
  inhibition at 0.01 µM: 85%
[5]; Human immunodeficiency virus 1, IIIB, H9, read-out: RT % Inhibition, 0.01 μM CPT, 1 h treatment, day 8 after infection
  inhibition at 0.01 µM: 75%
[5]; Human immunodeficiency virus 1, IIIB, H9, read-out: RT % Inhibition, 0.01 μM CPT, 1 h treatment, day 9 after infection
  inhibition at 0.01 µM: 17%
[5]; Human immunodeficiency virus 1, IIIB, H9, read-out: RT % Inhibition, 0.02 μM CPT, 1 h treatment, day 7 after infection
  inhibition at 0.02 µM: 100%
[5]; Human immunodeficiency virus 1, IIIB, H9, read-out: RT % Inhibition, 0.02 μM CPT, 1 h treatment, day 8 after infection
  inhibition at 0.02 µM: 98.8%
[5]; Human immunodeficiency virus 1, IIIB, H9, read-out: RT % Inhibition, 0.02 μM CPT, 1 h treatment, day 9 after infection
  inhibition at 0.02 µM: 52%
[5]; Human immunodeficiency virus 1, IIIB, H9, read-out: RT % Inhibition, 0.05 μM CPT, 1 h treatment, day 7 after infection
  inhibition at 0.05 µM: 100%
[5]; Human immunodeficiency virus 1, IIIB, H9, read-out: RT % Inhibition, 0.05 μM CPT, 1 h treatment, day 8 after infection
  inhibition at 0.05 µM: 100%
[5]; Human immunodeficiency virus 1, IIIB, H9, read-out: RT % Inhibition, 0.05 μM CPT, 1 h treatment, day 9 after infection
  inhibition at 0.05 µM: 100%
[5]; Human immunodeficiency virus 1, IIIB, H9, read-out: RT activity % Inhibition, 0.005 μM CPT, 1 h, 7 days postinfection
  inhibition at 0.005 µM: 89 ± 4%
[5]; Human immunodeficiency virus 1, IIIB, H9, read-out: RT activity % Inhibition, 0.01 μM CPT, 1 h, 7 days postinfection
  inhibition at 0.01 µM: 89 ± 4%
[5]; Human immunodeficiency virus 1, IIIB, H9, read-out: RT activity % Inhibition, 0.02 μM CPT, 1 h, 7 days postinfection
  inhibition at 0.02 µM: 93 ± 2%
[5]; Human immunodeficiency virus 1, IIIB, H9, read-out: RT activity % Inhibition, 0.05 μM CPT, 1 h, 7 days postinfection
  inhibition at 0.05 µM: 96 ± 1.5%
[5]; Human immunodeficiency virus 1, IIIB, H9, read-out: RT activity % Inhibition, 0.1 μM CPT, 1 h, 7 days postinfection
  inhibition at 0.1 µM: 98 ± 0.2%
[5]; Human immunodeficiency virus 1, IIIB, H9, read-out: RT activity % Inhibition, 0.2 μM CPT, 1 h, 7 days postinfection
  inhibition at 0.2 µM: 98 ± 0.8%
[5]; cell culture
  inhibiting the initiation of infection by HIV: has been demonstrated
[5]; one-hour treatment, 7 days after infection
  prevention of HIV replication (RT activity): 94-100%
[6]; cell culture
  inhibiting the initiation of infection by Moloney MuLV: has been demonstrated
[6]; in vitro
  Moloney MuLV replication: inhibits Moloney MuLV replication in vitro
[7]; cell culture
  inhibiting the initiation of infection by EIAV: has been demonstrated
[7]; chronically-infected cells
  EIAV replication: inhibits equine infectious anemia virus (EIAV) replication in chronically-infected cells
[8]; Human immunodeficiency virus 1, IIIB, H9, 1 h, read-out: HIV replication reduced to % of control values
  activity at 0.2 µM: 15%
[8]; Human immunodeficiency virus 1, IIIB, H9, 1 h, read-out: inhibition of HIV replication, 10 infected cells, 0.01 μM CPT, 1 h
  inhibition at 0.01 µM: 100%
[8]; Human immunodeficiency virus 1, IIIB, H9, 1 h, read-out: inhibition of HIV replication, 100 infected cells, 0.01 μM CPT, 1 h
  inhibition at 0.01 µM: 50%
[8]; Human immunodeficiency virus 1, IIIB, H9, 1 h, read-out: inhibition of HIV replication, 1000 infected cells, 0.01 μM CPT, 1 h (data not shown)
  inhibition at 0.01 µM: 13%
[8]; Human immunodeficiency virus 1, IIIB, H9, 18 h, read-out: inhibition of HIV replication (RT activity), 10 or 100 infected cells, 0.005 μM CPT, 18 h, days 7, 8 and 9
  inhibition at 0.005 µM: 98 to 100%
[8]; larger numbers of infected cells, 0.2 μM CPT, or 0.005 μM for 18h
  inhibitory effect on HIV replication: strong inhibitory effect on HIV replication
